Values of other authors as cited in patent publication US20120035207A1, “Use of GABAA Receptor Agonists for the Treatment of Hearing, Vestibular and Attention Disorders, Intention Tremor and Restless Leg Syndrome” (priority 2003, published 2012).

Biological target: T1, a4β3δ receptor (Homo sapiens, UniProt P28472+P48169)
T1 construct: host or cells: mouse L(-tk) cells stably expressing the α4β3δ receptor (Brown et al; Adkins et al.)
Details: reported by Brown et al, British J. Pharmacol., 136, 965-74 (2002)

T1 sequence (P48169 36-554): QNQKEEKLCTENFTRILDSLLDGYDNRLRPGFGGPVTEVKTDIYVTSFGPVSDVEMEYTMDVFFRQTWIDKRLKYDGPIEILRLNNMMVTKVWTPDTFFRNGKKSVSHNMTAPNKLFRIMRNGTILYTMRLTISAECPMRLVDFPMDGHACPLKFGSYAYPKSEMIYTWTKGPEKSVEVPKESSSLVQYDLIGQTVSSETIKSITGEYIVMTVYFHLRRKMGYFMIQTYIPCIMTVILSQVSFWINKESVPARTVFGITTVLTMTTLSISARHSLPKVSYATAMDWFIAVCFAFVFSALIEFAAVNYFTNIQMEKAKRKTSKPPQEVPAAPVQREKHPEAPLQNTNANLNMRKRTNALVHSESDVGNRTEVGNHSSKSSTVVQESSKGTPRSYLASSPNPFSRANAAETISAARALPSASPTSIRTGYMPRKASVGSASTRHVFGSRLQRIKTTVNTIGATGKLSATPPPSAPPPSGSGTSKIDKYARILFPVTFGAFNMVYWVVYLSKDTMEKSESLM
T1 sequence (P28472 26-473): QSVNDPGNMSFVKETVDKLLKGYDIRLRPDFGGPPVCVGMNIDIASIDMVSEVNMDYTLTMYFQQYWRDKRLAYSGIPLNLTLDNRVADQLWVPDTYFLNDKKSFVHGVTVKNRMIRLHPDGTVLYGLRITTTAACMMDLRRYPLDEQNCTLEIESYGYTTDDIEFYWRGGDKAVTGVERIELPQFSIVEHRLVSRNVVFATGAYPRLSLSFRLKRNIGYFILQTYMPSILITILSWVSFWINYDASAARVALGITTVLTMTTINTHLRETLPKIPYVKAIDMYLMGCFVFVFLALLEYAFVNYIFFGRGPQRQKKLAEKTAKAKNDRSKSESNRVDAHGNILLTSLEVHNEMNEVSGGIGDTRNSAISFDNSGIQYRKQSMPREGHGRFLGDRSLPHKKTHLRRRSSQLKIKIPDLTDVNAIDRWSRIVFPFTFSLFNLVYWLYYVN
T1 sequence (O14764 17-452 partner limits assumed): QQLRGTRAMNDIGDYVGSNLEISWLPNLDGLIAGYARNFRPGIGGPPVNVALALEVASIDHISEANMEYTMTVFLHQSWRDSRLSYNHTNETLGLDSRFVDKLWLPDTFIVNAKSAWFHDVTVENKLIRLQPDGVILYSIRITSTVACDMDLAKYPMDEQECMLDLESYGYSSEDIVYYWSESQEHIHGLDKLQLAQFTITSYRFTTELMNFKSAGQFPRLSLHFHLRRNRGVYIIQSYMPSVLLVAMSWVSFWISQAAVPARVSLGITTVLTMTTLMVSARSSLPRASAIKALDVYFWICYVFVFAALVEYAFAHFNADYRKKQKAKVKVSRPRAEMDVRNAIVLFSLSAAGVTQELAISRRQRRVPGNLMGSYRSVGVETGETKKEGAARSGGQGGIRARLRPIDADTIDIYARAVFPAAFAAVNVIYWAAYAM

Oc1noc2c1CCNC2 [Gaboxadol, 4,5,6,7-tetrahydroisoxazolo[5,4-c]pyridin-3-ol]
agonist activity at the a4β3δ receptor: potent agonist
